The values that follow come from PMC6155837, “Design, Synthesis, and Biological Evaluation of a New Series of Biphenyl/Bibenzyl Derivatives Functioning as Dual Inhibitors of Acetylcholinesterase and Butyrylcholinesterase” (Molecules : A Journal of Synthetic Chemistry and Natural …, 2017).

A word on the IC50: it is the concentration that gives 50% inhibition.

Where two headings read alike, the source gives them in different places. Where only a bound is given, the exact number is not on record here.

Experiment [1] concerns the target T1, BuChE (from human serum) (Homo sapiens, UniProt P06276).
T1 construct: human BuChE purified by human serum; from tissue; host or cells: human serum
In words: biochemical. As to the method:
(§1) All of the assay of acetylcholinesterase (AChE) and butyrylcholinesterase (BuChE) were performed according to the method described by Ellman et al. using the rat AChE purified from the rat brain and human BuChE purified by human serum. In an enzymatic reaction medium contained different concentration of tested compounds and AChE suspended in the phosphate buffer solution at pH 7.2. After 30 min at room temperature, acetylthiocholine iodide and 5.5′-dithiobis-2-nitrobenzoic acid (DNTB) were added and the reaction mixture incubated at 37 °C for 60 min. […] The parallel control experiment was carried without tested compounds in the reaction mixture. For BuChE inhibitory assay, the procedure described above was followed except for the use of enzyme and substrate, instead of which butyrylcholinesterase and butyrylthiocholine chloride were used, respectively. Assays were done with a blank containing all compounds except AChE or BuChE in order to account for nonenzymatic reactions. Each inhibitory test was conducted in triplicate. […] Each concentration was assayed in triplicate and data were expressed as the mean ± SEM.

Experiment [2] has as its target T2, AChE (from rat brain) (Rattus norvegicus, UniProt P37136).
T2 construct: rat AChE purified from the rat brain; from tissue; host or cells: rat brain
In words: biochemical. The class given is biochemical. As to the method: as §1

Where [3] appears, read: AChE from rat brain, footnote d: inactive up to 100 µM/L, read-out: IC50 µM ± SEM AChE.
[4] abbreviates: BuChE from human serum, means ± SEM of three experiments, read-out: IC50 µM ± SEM BuChE.
Setting [5] is: AChE from rat brain, means ± SEM of three experiments, read-out: IC50 µM ± SEM AChE.

T1 sequence (P06276 29-602): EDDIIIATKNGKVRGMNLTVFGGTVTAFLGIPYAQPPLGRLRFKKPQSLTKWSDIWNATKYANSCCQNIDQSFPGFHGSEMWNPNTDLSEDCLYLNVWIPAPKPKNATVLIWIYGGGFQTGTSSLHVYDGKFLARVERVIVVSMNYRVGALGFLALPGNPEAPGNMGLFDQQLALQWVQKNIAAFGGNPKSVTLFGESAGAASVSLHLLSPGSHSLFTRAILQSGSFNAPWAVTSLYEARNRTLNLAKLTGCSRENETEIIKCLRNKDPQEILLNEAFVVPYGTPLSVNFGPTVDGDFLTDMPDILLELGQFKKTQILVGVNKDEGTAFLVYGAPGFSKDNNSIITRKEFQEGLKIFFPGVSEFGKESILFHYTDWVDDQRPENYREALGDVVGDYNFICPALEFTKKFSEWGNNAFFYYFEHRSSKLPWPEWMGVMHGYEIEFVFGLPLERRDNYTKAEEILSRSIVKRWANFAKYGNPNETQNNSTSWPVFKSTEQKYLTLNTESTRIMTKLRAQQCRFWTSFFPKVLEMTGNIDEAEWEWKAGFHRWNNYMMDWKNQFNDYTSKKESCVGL
T2 sequence (P37136 32-614): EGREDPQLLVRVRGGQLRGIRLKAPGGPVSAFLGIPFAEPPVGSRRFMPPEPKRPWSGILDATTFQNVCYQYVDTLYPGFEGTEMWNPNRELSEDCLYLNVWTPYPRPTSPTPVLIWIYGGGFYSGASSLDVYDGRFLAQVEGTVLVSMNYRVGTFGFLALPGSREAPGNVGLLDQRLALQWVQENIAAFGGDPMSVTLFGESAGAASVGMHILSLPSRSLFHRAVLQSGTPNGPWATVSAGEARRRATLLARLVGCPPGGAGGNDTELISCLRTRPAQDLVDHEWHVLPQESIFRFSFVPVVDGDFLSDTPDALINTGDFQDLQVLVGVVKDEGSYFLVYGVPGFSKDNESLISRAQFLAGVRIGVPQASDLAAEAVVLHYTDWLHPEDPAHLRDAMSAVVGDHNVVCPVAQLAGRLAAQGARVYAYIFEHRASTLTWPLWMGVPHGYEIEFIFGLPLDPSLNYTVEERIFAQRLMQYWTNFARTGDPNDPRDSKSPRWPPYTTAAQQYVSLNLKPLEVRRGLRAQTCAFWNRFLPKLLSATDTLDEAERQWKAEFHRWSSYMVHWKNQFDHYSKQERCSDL

As for `O=C(CCCCN1CCCCC1)c1ccc(CCc2ccc(C(=O)CCCCN3CCCCC3)cc2)cc1` [Compound 33, 1,1′-(Ethane-1,2-diylbis(4,1-phenylene))bis(5-(piperidin-1-yl)pentan-1-one)], the IC50 in experiment [1] was 1.64 ± 0.27 µM; in experiment [2], 0.19 ± 0.08 µM.
The like results for `CN1CCN(CC(=O)c2ccc(CCc3ccc(C(=O)CN4CCN(C)CC4)cc3)cc2)CC1` [Compound 27, 1,1′-(Ethane-1,2-diylbis(4,1-phenylene))bis(2-(4-methylpiperazin-1-yl)ethanone)] were, in that order, 66.5 ± 17 µM and 74.1 ± 11.5 µM.
`OC(CCN1CCOCC1)c1ccc(-c2ccc(C(O)CCN3CCOCC3)cc2)cc1` (centres unmarked) [Compound 35, 1,1′-([1,1′-Biphenyl]-4,4′-diyl)bis(3-morpholinopropan-1-ol)]: the IC50 in experiment [1] (BuChE from human serum, footnote d: inactive up to 100 µM/L, read-out: IC50 µM ± SEM BuChE) is greater than 100 µM; in experiment [2] (setting [3]), greater than 100 µM.
As for `CN(C)CC(=O)c1ccc(-c2ccc(C(=O)CN(C)C)cc2)cc1` [Compound 12, 1,1′-([1,1′-Biphenyl]-4,4′-diyl)bis(2-(dimethylamino)ethanone)], the concentration for half-maximal inhibition (IC50) in experiment [1] (setting [4]) was 91.7 ± 15.7 µM; in experiment [2] (setting [3]), greater than 100 µM.
For the compound `O=C(CCN1CCCCC1)c1ccc(CCc2ccc(C(=O)CCN3CCCCC3)cc2)cc1` [Compound 30, 1,1′-(Ethane-1,2-diylbis(4,1-phenylene))bis(3-(piperidin-1-yl)propan-1-one)], the IC50 in experiment [1] (setting [4]) amounted to 3.14 ± 0.24 µM; in experiment [2] it was 0.5 ± 0.06 µM.
The like results for `O=C(CN1CCOCC1)c1ccc(-c2ccc(C(=O)CN3CCOCC3)cc2)cc1` [Compound 14, 1,1′-([1,1′-Biphenyl]-4,4′-diyl)bis(2-morpholinoethanone)] were, in that order, 1.44 ± 0.23 µM and greater than 100 µM.
Take `O=C(CCN1CCOCC1)c1ccc(-c2ccc(C(=O)CCN3CCOCC3)cc2)cc1` [Compound 20]: the IC50 in experiment [1] came out at 0.72 ± 0.1 µM; in experiment [2], 0.97 ± 0.08 µM.
The like results for `OC(CCN1CCCCC1)c1ccc(-c2ccc(C(O)CCN3CCCCC3)cc2)cc1` (centres unmarked) [Compound 34, 1,1′-([1,1′-Biphenyl]-4,4′-diyl)bis(3-(piperidin-1-yl)propan-1-ol)] were, in that order, 13.8 ± 1.59 µM and 31.7 ± 10.2 µM.
Take `CN(C)CC(=O)c1ccc(CCc2ccc(C(=O)CN(C)C)cc2)cc1` [Compound 25, 1,1′-(Ethane-1,2-diylbis(4,1-phenylene))bis(2-(dimethylamino)ethanone)]: the 50% inhibitory concentration (IC50) in experiment [1] amounted to 9.11 ± 2.55 µM; in experiment [2], 62.3 ± 14.5 µM.
The like results for `O=C(CCN1CCC1)c1ccc(-c2ccc(C(=O)CCN3CCC3)cc2)cc1` [Compound 17, 4,4′-Bis(β-azetidin-propinoyl)-biphenyl] were, in that order, 2.39 ± 0.75 µM and 0.71 ± 0.06 µM.
With `O=C(CCN1CCCC1)c1ccc(-c2ccc(C(=O)CCN3CCCC3)cc2)cc1` [Compound 18, 4,4′-Bis(β-pyrrolidin-propinoyl)-biphenyl], the results for the IC50 in experiment [1] and in experiment [2] were 1.16 ± 0.09 µM and 0.33 ± 0.06 µM, respectively.
The like results for `CN(C)CCC(=O)c1ccc(CCc2ccc(C(=O)CCN(C)C)cc2)cc1` [Compound 29, 1,1′-(Ethane-1,2-diylbis(4,1-phenylene))bis(3-(dimethylamino)propan-1-one)] were, in that order, 1.21 ± 0.22 µM and 2.62 ± 0.63 µM.
Take `O=C(CCCN1CCCCC1)c1ccc(CCc2ccc(C(=O)CCCN3CCCCC3)cc2)cc1` [Compound 32, 1,1′-(Ethane-1,2-diylbis(4,1-phenylene))bis(4-(piperidin-1-yl)butan-1-one)]: the IC50 turned out to be 19.2 ± 4.78 µM in experiment [1] and 3.67 ± 0.92 µM in experiment [2].
The like results for `CN(C)CCC(=O)c1ccc(-c2ccc(C(=O)CCN(C)C)cc2)cc1` [Compound 1, 4,4′-bi-(β-dimethylamino-propinoyl)-biphenyl] were, in that order, 0.19 µM and 0.75 µM.
Consider `OC(CCN1CCCCC1)c1ccc(CCc2ccc(C(O)CCN3CCCCC3)cc2)cc1` (centres unmarked) [Compound 36, 1,1′-(Ethane-1,2-diylbis(4,1-phenylene))bis(3-(piperidin-1-yl)propan-1-ol)], for which the IC50 in experiment [1] (setting [4]) is 25.9 ± 6.81 µM; in experiment [2] (setting [5]), 74.9 ± 35.6 µM.
On to `O=C(CCN1CCCCC1)c1ccc(-c2ccc(C(=O)CCN3CCCCC3)cc2)cc1` [Compound 19], for which the IC50 in experiment [1] amounted to 1.25 ± 0.15 µM; in experiment [2], 0.096 ± 0.006 µM. In addition, in experiment [2] (relative to compound 1), the “fold more potent than the lead compound (1) for inhibiting AChE” value is “eight”.
As for `O=C(CCN1CCCCCC1)c1ccc(-c2ccc(C(=O)CCN3CCCCCC3)cc2)cc1` [Compound 21, 4,4′-Bis(β-azepan-propinoyl)-biphenyl], the IC50 was determined as 1.94 ± 0.07 µM in experiment [1] and 1.43 ± 0.33 µM in experiment [2].
The like results for `O=C(CCCN1CCCCC1)c1ccc(-c2ccc(C(=O)CCCN3CCCCC3)cc2)cc1` [Compound 23, 1,1′-([1,1′-Biphenyl]-4,4′-diyl)bis(4-(piperidin-1-yl)butan-1-one)] were, in that order, 5.9 ± 0.4 µM and 1.32 ± 0.43 µM.
The like results for `CCCN(CCC)CCC(=O)c1ccc(-c2ccc(C(=O)CCN(CCC)CCC)cc2)cc1` [Compound 16, 4,4′-Bis(β-dipropylamino-propinoyl)-biphenyl] were, in that order, 2.83 ± 0.5 µM and 0.88 ± 0.17 µM.
For `O=C(CN1CCCCC1)c1ccc(CCc2ccc(C(=O)CN3CCCCC3)cc2)cc1` [Compound 26, 1,1′-(Ethane-1,2-diylbis(4,1-phenylene))bis(2-(piperidin-1-yl)ethanone)], the IC50 stood at 20.7 ± 5.44 µM in experiment [1] and 74.5 ± 8.5 µM in experiment [2] (setting [5]).
Consider `O=C(CN1CCCCC1)c1ccc(-c2ccc(C(=O)CN3CCCCC3)cc2)cc1` [Compound 13, 1,1′-([1,1′-Biphenyl]-4,4′-diyl)bis(2-(piperidin-1-yl)ethanone)], for which the IC50 is 71.7 ± 3.01 µM in experiment [1] and greater than 100 µM in experiment [2] (setting [3]).
Turning to `O=C(CCN1CCOCC1)c1ccc(CCc2ccc(C(=O)CCN3CCOCC3)cc2)cc1` [Compound 31, 1,1′-(Ethane-1,2-diylbis(4,1-phenylene))bis(3-morpholinopropan-1-one)], the IC50 in experiment [1] is 6.38 ± 1.26 µM; in experiment [2], 3.53 ± 0.79 µM.
The like results for `CCN(CC)CCC(=O)c1ccc(-c2ccc(C(=O)CCN(CC)CC)cc2)cc1` [Compound 15, 4,4′-Bis(β-diethylamino-propinoyl)-biphenyl] were, in that order, 0.74 ± 0.09 µM and 1.18 ± 0.29 µM.
`O=C(CN1CCOCC1)c1ccc(CCc2ccc(C(=O)CN3CCOCC3)cc2)cc1` [Compound 28]: the IC50 is 6.3 ± 1.6 µM in experiment [1] (setting [4]) and greater than 100 µM in experiment [2] (setting [3]).
Consider `O=C(CCCCN1CCCCC1)c1ccc(-c2ccc(C(=O)CCCCN3CCCCC3)cc2)cc1` [Compound 24, 1,1′-([1,1′-Biphenyl]-4,4′-diyl)bis(5-(piperidin-1-yl)pentan-1-one)], for which the IC50 in experiment [1] came to 2.65 ± 0.11 µM; in experiment [2] it was 0.82 ± 0.16 µM.
The like results for `CN1CCN(CCC(=O)c2ccc(-c3ccc(C(=O)CCN4CCN(C)CC4)cc3)cc2)CC1` [Compound 22, 4,4′-Bis(β-4-methylpiperazin-propinoyl)-biphenyl] were, in that order, 13.8 ± 0.81 µM and 1.61 ± 0.38 µM.
